Consider 24 molecules from US20260138961A1, “MODULATORS OF MITOCHONDRIAL DNA REPLICATION” (Pretzel Therapeutics, Inc., priority 2022, published 2026).

A word on the AC50: it is the concentration at which the activity in the assay is half-maximal.

Each structure is given as a SMILES string. Where only a bound is given, the exact number is not on record here.

One assay has as its target T1, wild type human POLγ (POLγA:WT) (Homo sapiens, UniProt P54098).
T1 sequence (P54098 1-1239): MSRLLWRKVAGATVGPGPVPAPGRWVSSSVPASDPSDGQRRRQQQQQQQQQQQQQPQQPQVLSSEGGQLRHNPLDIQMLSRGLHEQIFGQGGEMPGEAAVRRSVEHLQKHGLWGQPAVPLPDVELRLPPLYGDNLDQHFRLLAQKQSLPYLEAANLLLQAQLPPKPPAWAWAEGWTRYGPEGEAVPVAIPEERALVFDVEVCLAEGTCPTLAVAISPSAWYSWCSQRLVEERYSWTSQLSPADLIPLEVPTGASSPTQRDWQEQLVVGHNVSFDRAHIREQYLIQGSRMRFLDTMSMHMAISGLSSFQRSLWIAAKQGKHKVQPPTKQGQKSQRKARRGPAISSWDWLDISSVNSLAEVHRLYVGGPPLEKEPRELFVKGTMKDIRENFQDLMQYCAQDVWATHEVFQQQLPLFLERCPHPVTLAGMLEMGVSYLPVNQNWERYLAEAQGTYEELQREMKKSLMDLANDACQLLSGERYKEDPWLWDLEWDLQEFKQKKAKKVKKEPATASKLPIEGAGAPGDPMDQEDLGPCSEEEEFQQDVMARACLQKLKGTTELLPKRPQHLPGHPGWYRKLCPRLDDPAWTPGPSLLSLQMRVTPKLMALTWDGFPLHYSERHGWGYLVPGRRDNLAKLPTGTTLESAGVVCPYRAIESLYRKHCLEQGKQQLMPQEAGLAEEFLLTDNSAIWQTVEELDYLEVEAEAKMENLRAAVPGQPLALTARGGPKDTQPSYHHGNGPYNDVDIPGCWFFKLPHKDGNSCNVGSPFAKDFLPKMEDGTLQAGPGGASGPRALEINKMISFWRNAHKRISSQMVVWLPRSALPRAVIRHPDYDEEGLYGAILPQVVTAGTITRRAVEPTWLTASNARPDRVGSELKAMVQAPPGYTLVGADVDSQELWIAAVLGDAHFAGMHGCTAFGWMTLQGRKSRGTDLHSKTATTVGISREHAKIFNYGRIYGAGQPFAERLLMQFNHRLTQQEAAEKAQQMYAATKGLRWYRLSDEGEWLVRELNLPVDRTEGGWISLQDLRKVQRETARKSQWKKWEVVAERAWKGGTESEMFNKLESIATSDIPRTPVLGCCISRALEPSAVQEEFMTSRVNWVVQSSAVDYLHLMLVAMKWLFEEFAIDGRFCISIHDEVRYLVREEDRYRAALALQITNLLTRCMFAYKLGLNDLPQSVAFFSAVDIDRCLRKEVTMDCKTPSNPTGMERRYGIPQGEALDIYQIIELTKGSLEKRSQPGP
T1 sequence (Q9UHN1 1-485 partner): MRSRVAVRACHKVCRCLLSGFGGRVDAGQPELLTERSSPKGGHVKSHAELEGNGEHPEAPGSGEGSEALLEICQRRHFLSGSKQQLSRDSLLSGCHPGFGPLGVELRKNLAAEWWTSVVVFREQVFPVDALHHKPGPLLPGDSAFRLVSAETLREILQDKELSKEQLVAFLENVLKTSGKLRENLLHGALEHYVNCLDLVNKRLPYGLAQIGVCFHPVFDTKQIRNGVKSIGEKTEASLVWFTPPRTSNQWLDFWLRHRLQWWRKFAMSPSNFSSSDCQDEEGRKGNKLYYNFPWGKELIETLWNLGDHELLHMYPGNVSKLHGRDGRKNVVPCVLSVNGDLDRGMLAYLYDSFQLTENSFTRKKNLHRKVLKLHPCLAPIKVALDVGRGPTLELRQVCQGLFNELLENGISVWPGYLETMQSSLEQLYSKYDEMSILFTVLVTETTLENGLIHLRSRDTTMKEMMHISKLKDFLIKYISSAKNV
The assay is described as follows: DNA polymerization assay, wild type POLγ. It counts as biochemical. Conditions: 100 μM dNTP, read-out: WT AC50 (μM) at 100 μM. The procedure:
DNA Polymerization Assay to Monitor Effects on Human Wildtype POLγ and Four Disease-Causing Mutant Variants of Human POLγ.
The ability of small molecules to stimulate the polymerase activity of POLγ was analyzed in a quantitative fluorescence SYBR Green I assay with fluorescence intensity (FI) readout.
In the presence of dNTPs, wild type human POLγ and mutant derivatives thereof were incubated with single-stranded, circular M13mp18 ssDNA hybridized to a short DNA oligonucleotide that functions as a primer for initiation of DNA synthesis. POLγ and mutant derivatives thereof will extend the primer and use the M13mp18 molecule as a template to synthesize long stretches of double-stranded DNA. SYBR Green I, which is a double-stranded DNA-binding dye, was used to quantify formation of double-stranded DNA in the reaction. When bound to double-stranded DNA, SYBR Green I fluorescence increases by up to 100-fold.
The assay was performed in the 384-well plate format. Upon addition of compounds, changes in double-stranded DNA synthesis activity can be monitored by following effects on fluorescent intensity.
The reactions also contained the accessory POLγB subunit, and the human mitochondrial single-stranded DNA binding protein (mtSSB).
The DNA template mixture used in the assay contained 0.5 nM primed M13 mp18 ssDNA, 400 nM mtSSB, 0.1 mM Tris-HCl (pH 8.0), 0.1 mM dNTP, 10 mM MgCl2, 0.1 mg/mL BSA, 1 mM TCEP solution, and 0.02% Triton X-100. The DNA template mixture for the wild type protein contained either 100 μM dNTP, 1 μM dNTP, or 0.1 μM dNTP, designated in Table 2 as 100 μM, 1 μM, and 0.1 μM, respectfully.
Microplates with compounds (0.1 μL in each well) to be tested in the assay were prepared from 10 mM compound stocks in 100% DMSO, and equal amounts of DMSO without any compound were added to positive and negative control wells.
The protein mixture was dispensed (5 μL into each well) into compound plates and incubated at 37° C. for 15 minutes. After incubation, 5 μL of the DNA template mixture was dispensed into each well. The plates were then incubated at 37° C. for 2 hours.
During incubation, a combined stop buffer and detection reagent solution was prepared. The buffer contained 25 mM EDTA (pH 8.0), 0.02% Triton X-100, and SYBR Green I [Invitrogen] diluted 10,000× (for fluorescent readout). EDTA will stop the enzymatic reaction by chelating magnesium ions.
On to `Cc1ccc(C)c(S(=O)(=O)Nc2cccc(C(=O)N3CCCCC3C#N)c2)c1` (stereo not drawn) [Example 2, N-(3-(2-cyanopiperidine-1-carbonyl)phenyl)-2,5-dimethylbenzenesulfonamide], for which the AC50 stood at 1 µM.
Same read-out and setting: as for `Cc1cc(S(=O)(=O)Nc2cccc(C(=O)N3CCCC[C@H]3C)c2)c(C)cc1Cl` [Example 9, (R)-4-chloro-2,5-dimethyl-N-(3-(2-methylpiperidine-1-carbonyl)phenyl)benzenesulfonamide], the figure is 2 µM; as for `O=S(=O)(Nc1csc(-c2ccccc2)n1)c1ccc2c(c1)CCO2` [Example 152, N-(2-phenylthiazol-4-yl)-2,3-dihydrobenzofuran-5-sulfonamide], over 10 µM; as for `Cc1cc(S(=O)(=O)Nc2ccc3c(c2)CC(=O)N3)c(C)cc1Cl` [Example 185, 4-chloro-2,5-dimethyl-N-(2-oxoindolin-5-yl)benzenesulfonamide], 6 µM.
For the molecule `O=S(=O)(Nc1csc(-c2ccccc2)n1)c1ccccc1Cl` [Example 125, 2-chloro-N-(2-phenylthiazol-4-yl)benzenesulfonamide], the AC50 was over 10 µM.
On the same count and under the same terms, as for `Cc1cc(S(=O)(=O)N[C@@H]2CCCN(C(=O)[C@@H]3CCCN3C)C2)c(C)cc1Cl` [Example 104, 4-chloro-2,5-dimethyl-N-((R)-1-(methyl-L-prolyl)piperidin-3-yl)benzenesulfonamide], the figure is over 10 µM.
Still for that read-out and setting: as for `Cc1ccc(C)c(S(=O)(=O)Nc2cccc(C(=O)N3CCOCC3C#N)c2)c1` (stereo not drawn) [Example 7, N-(3-(3-cyanomorpholine-4-carbonyl)phenyl)-2,5-dimethylbenzenesulfonamide], the figure is 1 µM; as for `Cc1ccc(C)c(S(=O)(=O)Nc2cccc(C(=O)N3CCCC[C@H]3C)c2)c1` [Example 5, (R)-2,5-dimethyl-N-(3-(2-methylpiperidine-1-carbonyl)phenyl)benzenesulfonamide], 5 µM; as for `Cc1cc(NS(=O)(=O)c2cc(C)c(Cl)cc2C)cc(-c2ncc(C)s2)c1` [Example 110, 4-chloro-2,5-dimethyl-N-(3-methyl-5-(5-methylthiazol-2-yl)phenyl)benzenesulfonamide], over 100 µM.
On the same count and under the same terms, as for `Cc1cc(Cl)ccc1S(=O)(=O)Nc1cccc(C(=O)N2CCC[C@H]2C)c1` [Example 116, (R)-4-chloro-2-methyl-N-(3-(2-methylpyrrolidine-1-carbonyl)phenyl)benzenesulfonamide], the figure is over 10 µM.
Regarding `Cc1cc(S(=O)(=O)Nc2cc(F)cc(C(=O)N3CCC[C@H]3C)c2)c(C)cc1Cl` [Example 13, (R)-4-chloro-N-(3-fluoro-5-(2-methylpyrrolidine-1-carbonyl)phenyl)-2,5-dimethylbenzenesulfonamide], the AC50 came out at 1 µM.
Still for that read-out and setting: as for `Cc1cc(S(=O)(=O)Nc2cccc(C(=O)N(C)c3ccccn3)c2)c(C)cc1Cl` [Example 109, 3-((4-chloro-2,5-dimethylphenyl)sulfonamido)-N-methyl-N-(pyridin-2-yl)benzamide], the figure is over 100 µM.
Same read-out and setting: as for `O=S(=O)(Nc1csc(-c2ccccc2)n1)c1cccc(C(F)(F)F)c1` [Example 151, N-(2-phenylthiazol-4-yl)-3-(trifluoromethyl)benzenesulfonamide], the figure is over 10 µM; as for `Cc1cc(S(=O)(=O)Nc2cccc(-c3nccs3)c2)c(C)cc1Cl` [Example 16, 4-chloro-2,5-dimethyl-N-(3-(thiazol-2-yl)phenyl)benzenesulfonamide], 0.2 µM.
Consider `Cc1cnc(-c2cc(NS(=O)(=O)c3cc(C)c(Cl)cc3C)ccc2Cl)s1` [Example 111, 4-chloro-N-(4-chloro-3-(5-methylthiazol-2-yl)phenyl)-2,5-dimethylbenzenesulfonamide], for which the half-maximal activity concentration (AC50) came to 3 µM.
On the same count and under the same terms, as for `Cc1cc(S(=O)(=O)Nc2cccc(-c3ncco3)c2)c(C)cc1Cl` [Example 17, 4-chloro-2,5-dimethyl-N-(3-(oxazol-2-yl)phenyl)benzenesulfonamide], the figure is 0.6 µM.
`Cc1cc(S(=O)(=O)Nc2csc(-c3ccccc3)n2)c(Cl)cc1F` [Example 136, 2-chloro-4-fluoro-5-methyl-N-(2-phenylthiazol-4-yl)benzenesulfonamide]: the AC50 was found to be 0.8 µM.
Still for that read-out and setting: as for `CNC(=O)c1cnc(-c2cccc(NS(=O)(=O)c3cc(C)c(Cl)cc3C)c2)s1` [Example 93, 2-(3-((4-chloro-2,5-dimethylphenyl)sulfonamido)phenyl)-N-methylthiazole-5-carboxamide], the figure is 3 µM; as for `Cc1cnc(-c2ccc(C)c(NS(=O)(=O)c3cc(C)c(Cl)cc3C)c2)s1` [Example 98, 4-chloro-2,5-dimethyl-N-(2-methyl-5-(5-methylthiazol-2-yl)phenyl)benzenesulfonamide], over 10 µM; as for `Cc1cc(S(=O)(=O)Nc2cccc(C(=O)N3CCCC4(CC4)C3)c2)c(C)cc1Cl` [Example 105, N-(3-(5-azaspiro[2.5]octane-5-carbonyl)phenyl)-4-chloro-2,5-dimethylbenzenesulfonamide], over 10 µM.
On the same count and under the same terms, as for `Cc1cc(S(=O)(=O)Nc2cccc(-c3ccn(C)n3)c2)c(C)cc1Cl` [Example 18, 4-chloro-2,5-dimethyl-N-(3-(1-methyl-1H-pyrazol-3-yl)phenyl)benzenesulfonamide], the figure is 1 µM.
Same read-out and setting: next, `Cc1cc(F)ccc1S(=O)(=O)Nc1csc(-c2ccccc2)n1` [Example 124, 4-fluoro-2-methyl-N-(2-phenylthiazol-4-yl)benzenesulfonamide]: 1 µM.
For the molecule `Cc1cc(S(=O)(=O)Nc2cccc(C(=O)N3CCCC3)c2)c(C)cc1Cl` [Example 119, 4-chloro-2,5-dimethyl-N-(3-(pyrrolidine-1-carbonyl)phenyl) benzenesulfonamide], the AC50 is over 10 µM.

Still in this assay, the particulars now being: WT AC50 (μM) at 100 μM, 100 μM dNTP.
`Cc1cc(S(=O)(=O)Nc2noc(-c3ccccc3)n2)c(C)cc1Cl` [Example 142, 4-chloro-2,5-dimethyl-N-(5-phenyl-1,2,4-oxadiazol-3-yl)benzenesulfonamide] gave an AC50 of over 10 µM.
